Measured values published in ChEMBL document CHEMBL1150773, “Novel donepezil-based inhibitors of acetyl- and butyrylcholinesterase and acetylcholinesterase-induced beta-amyloid aggregation” (J Med Chem, 2008).

What was measured:
Cholinesterase = Cholinesterase (Homo sapiens, UniProt P06276)
Description: Inhibition of human serum BChE by Ellman's assay

Acetylcholinesterase [1] = molecular target: T1, Acetylcholinesterase (Bos taurus, UniProt P23795)
T1 sequence (P23795 whole entry): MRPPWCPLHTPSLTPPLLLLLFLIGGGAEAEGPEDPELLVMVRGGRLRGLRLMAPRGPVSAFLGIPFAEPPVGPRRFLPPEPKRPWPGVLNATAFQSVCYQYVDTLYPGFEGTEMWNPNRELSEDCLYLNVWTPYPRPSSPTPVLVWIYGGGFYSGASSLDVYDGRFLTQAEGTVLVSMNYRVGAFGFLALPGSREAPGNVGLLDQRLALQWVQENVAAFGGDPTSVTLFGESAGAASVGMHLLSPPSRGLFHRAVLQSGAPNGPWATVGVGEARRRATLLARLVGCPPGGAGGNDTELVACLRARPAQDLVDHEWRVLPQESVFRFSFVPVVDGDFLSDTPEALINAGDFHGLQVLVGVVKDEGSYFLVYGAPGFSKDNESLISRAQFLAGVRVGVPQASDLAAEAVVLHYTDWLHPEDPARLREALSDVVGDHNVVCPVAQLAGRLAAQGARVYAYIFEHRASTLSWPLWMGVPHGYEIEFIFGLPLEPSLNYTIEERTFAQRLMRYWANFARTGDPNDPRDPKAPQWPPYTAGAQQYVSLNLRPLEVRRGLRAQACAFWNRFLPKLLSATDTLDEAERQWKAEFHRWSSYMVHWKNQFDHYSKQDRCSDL
Description: Inhibition of bovine erythrocyte AChE by Ellman's assay

Acetylcholinesterase [2] = molecular target: Acetylcholinesterase (Homo sapiens, UniProt P22303)
Sequence of Acetylcholinesterase (Homo sapiens, UniProt P22303) (P22303 whole entry): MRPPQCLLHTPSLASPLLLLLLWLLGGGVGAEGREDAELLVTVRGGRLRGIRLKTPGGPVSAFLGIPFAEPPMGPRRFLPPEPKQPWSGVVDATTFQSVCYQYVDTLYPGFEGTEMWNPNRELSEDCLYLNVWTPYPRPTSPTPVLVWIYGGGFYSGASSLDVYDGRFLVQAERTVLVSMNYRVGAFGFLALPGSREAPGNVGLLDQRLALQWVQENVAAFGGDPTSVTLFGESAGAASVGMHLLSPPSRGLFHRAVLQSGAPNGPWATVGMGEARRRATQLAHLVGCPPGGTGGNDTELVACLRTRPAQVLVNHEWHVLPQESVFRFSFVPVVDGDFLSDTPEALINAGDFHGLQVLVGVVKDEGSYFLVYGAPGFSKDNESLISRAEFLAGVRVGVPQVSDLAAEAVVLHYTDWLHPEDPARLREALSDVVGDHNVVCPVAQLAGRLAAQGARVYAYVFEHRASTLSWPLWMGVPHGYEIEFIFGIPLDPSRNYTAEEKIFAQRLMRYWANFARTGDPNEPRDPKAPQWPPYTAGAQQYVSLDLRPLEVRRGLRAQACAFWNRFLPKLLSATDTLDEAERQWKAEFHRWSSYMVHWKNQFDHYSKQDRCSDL
Description: Inhibition of human erythrocyte AChE by Ellman's assay

Sequence of Cholinesterase (P06276 whole entry): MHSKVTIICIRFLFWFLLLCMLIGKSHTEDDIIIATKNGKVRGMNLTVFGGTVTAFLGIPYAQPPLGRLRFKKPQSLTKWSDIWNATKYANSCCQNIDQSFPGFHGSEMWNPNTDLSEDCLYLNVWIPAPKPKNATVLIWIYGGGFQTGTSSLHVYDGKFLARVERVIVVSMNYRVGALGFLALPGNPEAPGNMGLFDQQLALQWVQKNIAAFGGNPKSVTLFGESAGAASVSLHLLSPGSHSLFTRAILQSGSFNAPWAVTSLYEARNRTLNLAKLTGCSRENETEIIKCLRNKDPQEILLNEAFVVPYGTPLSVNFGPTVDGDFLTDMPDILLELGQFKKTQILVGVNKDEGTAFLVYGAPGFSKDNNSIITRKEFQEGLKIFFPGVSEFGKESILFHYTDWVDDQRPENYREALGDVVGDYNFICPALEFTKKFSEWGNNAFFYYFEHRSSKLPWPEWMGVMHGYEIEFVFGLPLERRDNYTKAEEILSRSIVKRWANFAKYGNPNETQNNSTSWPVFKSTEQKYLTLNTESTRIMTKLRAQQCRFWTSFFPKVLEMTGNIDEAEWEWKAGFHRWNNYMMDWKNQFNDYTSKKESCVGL

Q: Which IC50 (Cholinesterase) does the source give for `COc1cc2c(cc1OC)CC(CC1CCN(CCNc3c4c(nc5ccccc35)CCCC4)CC1)C2` here?
A: 8.06 nM

Q: And the IC50 (Acetylcholinesterase [1])?
A: 2.28 nM

Q: What about the IC50 (Acetylcholinesterase [2]) of the same molecule?
A: 5.13 nM

Q: Which results are given for `COc1cc2c(cc1OC)CC(CC1CCN(CCCNc3c4c(nc5ccccc35)CCCC4)CC1)C2`?
A: IC50 (Cholinesterase): 7.25 nM; IC50 (Acetylcholinesterase [1]): 0.82 nM; IC50 (Acetylcholinesterase [2]): 2.16 nM

Q: How did the IC50 (Cholinesterase) turn out when `COc1cc2c(cc1OC)CC(CC1CCN(CCNc3c4c(nc5cc(Cl)ccc35)CCCC4)CC1)C2` was run?
A: 88.7 nM

Q: And the IC50 (Acetylcholinesterase [1])?
A: 1.86 nM

Q: What about the IC50 (Acetylcholinesterase [2]) of the same molecule?
A: 2.6 nM

Q: For `COc1cc2c(cc1OC)C(=O)C(CC1CCN(CCNc3c4c(nc5cc(Cl)ccc35)CCCC4)CC1)C2` (configuration not stated), which IC50 (Cholinesterase) is on record?
A: 136 nM

Q: What about the IC50 (Acetylcholinesterase [1]) of the same molecule?
A: 0.57 nM

Q: And the IC50 (Acetylcholinesterase [2])?
A: 0.67 nM

Q: `COc1cc2c(cc1OC)C(=O)C(CC1CCN(CCCNc3c4c(nc5cc(Cl)ccc35)CCCC4)CC1)C2` (configuration not stated) was tested. Which IC50 (Cholinesterase) did it give?
A: 66.3 nM

Q: For `COc1cc2c(cc1OC)C(=O)C(CC1CCN(CCCNc3c4c(nc5ccccc35)CCCC4)CC1)C2` (configuration not stated), which IC50 (Cholinesterase) is on record?
A: 12.3 nM

Q: And the IC50 (Acetylcholinesterase [1])?
A: 0.29 nM

Q: And the IC50 (Acetylcholinesterase [2])?
A: 0.88 nM

Q: How did the IC50 (Cholinesterase) turn out when `COc1cc2c(cc1OC)CC(CC1CCN(CCCNc3c4c(nc5cc(Cl)ccc35)CCCC4)CC1)C2` was run?
A: 72.7 nM

Q: And the IC50 (Acetylcholinesterase [1])?
A: 0.82 nM

Q: And the IC50 (Acetylcholinesterase [2])?
A: 1.06 nM

Q: With `Nc1c2c(nc3cc(Cl)ccc13)CCCC2` as the molecule, how does the IC50 (Acetylcholinesterase [1]) read?
A: 5.73 nM

Q: What does the source list for `COc1cc2c(cc1OC)CC(CC1CCN(Cc3ccccc3)CC1)C2`?
A: IC50 (Cholinesterase): 6400 nM; IC50 (Acetylcholinesterase [1]): 1450 nM
